# How the values were obtained:
# [1] = target: T1, lsBSH (Ligilactobacillus salivarius, UniProt J7H3P9); assay: X-ray crystal structure, […] Å, crystal soaking; format: binding; details: CA formed from soaked GCA; Cys2 oxidised (sulfonic form); active site of chains B, C, D, E, G and H
# T1 construct: recombinant from E. coli JL885 (pBSH vector), purified; initiator Met removed, N-terminal nucleophile Cys2; homotetramer; Cys2 oxidised (sulfonic, OCS) in the crystal
# [2] = target: bile salt hydrolase from Lactobacillus salivarius (Lactobacillus salivarius NRRL B-30514); assay: crystal structure; apo lsBSH crystals (20% PEG 3,350, 0.2 M KH2PO4 pH 4.8, 20 °C) soaked with GCA for 4 h; space group P21; two tetramers in one asymmetric unit
# T1 sequence (J7H3P9 entry or part of it): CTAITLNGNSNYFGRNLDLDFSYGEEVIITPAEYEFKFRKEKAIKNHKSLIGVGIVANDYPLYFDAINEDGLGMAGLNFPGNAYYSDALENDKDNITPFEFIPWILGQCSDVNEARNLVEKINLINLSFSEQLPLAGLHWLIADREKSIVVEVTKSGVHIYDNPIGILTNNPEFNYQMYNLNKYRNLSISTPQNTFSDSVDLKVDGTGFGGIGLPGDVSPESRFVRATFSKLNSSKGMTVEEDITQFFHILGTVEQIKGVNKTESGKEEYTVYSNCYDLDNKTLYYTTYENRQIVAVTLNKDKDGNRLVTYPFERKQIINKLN
stoichiometry N [2],Compound,"X-ray crystal structure, 2.10 Å, crystal soaking [1]"
,"C[C@H](CCC(=O)O)[C@H]1CC[C@H]2[C@@H]3[C@H](O)C[C@@H]4C[C@H](O)CC[C@]4(C)[C@H]3C[C@H](O)[C@]12C [CA, cholic acid]",The lsBSH monomers were obtained bound to substrate GCA or product CA
4,bile salt hydrolase from Lactobacillus salivarius (enzyme),

# Source: PMC6711994 (Scientific Reports, 2019)
